Values of other authors as cited in patent US20170020882A1, “ANTIVIRAL FORMULATION” (MEDA PHARMA SARL, priority 2008, published 2017).

Tests used:
cold sore lesions = settings: human, in vivo
[1] = human, in vivo

| SMILES | reduction in healing time (cold sore lesions) | reduction of time to loss of pain (cold sore lesions) | frequency of aborted lesions [1] |
| --- | --- | --- | --- |
| Nc1nc2c(ncn2CCC(CO)CO)c(=O)[nH]1 [penciclovir] | 0.7 days | 0.6 days |  |
| CC(=O)OCC(CCn1cnc2cnc(N)nc21)COC(C)=O [famciclovir] |  |  | 8% |
